Key:
Experiment in all cases: radiometric filter-binding kinase assay
[1] = target: BTK (human) (UniProt Q06187)
[2] = target: CDK2 CCNA2 (human) (UniProt P20248+P24941)
[3] = target: CHEK1 (human) (UniProt O14757)
[4] = target: CSNK2A1 (human) (UniProt P68400)
[5] = target: DAPK1 (human) (UniProt P53355)
[6] = target: EEF2K (human) (UniProt O00418); conditions: compound 10.0 µM
[7] = target: EPHA4 (human) (UniProt P54764)
[8] = target: EPHB1 (human) (UniProt P54762)
[9] = target: EPHB4 (human) (UniProt P54760); conditions: compound 1.0 µM
[10] = target: GCK (human) (UniProt Q12851)
[11] = target: IKBKB (human) (UniProt O14920)
IKBKB (human), sequence (O14920 whole entry, looked up): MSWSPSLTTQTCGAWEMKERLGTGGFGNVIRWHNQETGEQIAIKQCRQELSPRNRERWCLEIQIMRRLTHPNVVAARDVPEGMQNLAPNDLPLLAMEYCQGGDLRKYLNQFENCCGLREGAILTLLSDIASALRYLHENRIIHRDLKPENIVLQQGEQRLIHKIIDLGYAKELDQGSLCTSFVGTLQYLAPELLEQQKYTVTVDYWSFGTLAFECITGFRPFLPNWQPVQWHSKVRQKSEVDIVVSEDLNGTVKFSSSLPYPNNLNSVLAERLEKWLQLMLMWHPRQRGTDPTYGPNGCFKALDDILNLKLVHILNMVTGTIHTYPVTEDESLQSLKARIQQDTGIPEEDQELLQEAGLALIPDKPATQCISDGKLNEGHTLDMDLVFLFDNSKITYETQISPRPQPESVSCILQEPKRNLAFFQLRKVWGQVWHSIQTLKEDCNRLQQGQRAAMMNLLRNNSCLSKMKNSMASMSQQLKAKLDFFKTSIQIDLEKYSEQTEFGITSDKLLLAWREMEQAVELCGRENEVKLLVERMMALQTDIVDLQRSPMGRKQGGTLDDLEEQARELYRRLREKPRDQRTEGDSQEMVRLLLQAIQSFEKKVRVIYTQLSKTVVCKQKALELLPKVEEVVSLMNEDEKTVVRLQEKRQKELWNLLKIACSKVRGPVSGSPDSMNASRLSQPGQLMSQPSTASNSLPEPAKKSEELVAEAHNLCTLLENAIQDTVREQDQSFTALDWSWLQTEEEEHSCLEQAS

[12] = target: INSRR (human) (UniProt P14616)
[13] = target: MAP2K1 (human) (UniProt Q02750)
[14] = target: MAP2K2 (human) (UniProt P36507)
[15] = target: MAP3K5 (human) (UniProt Q99683)
[16] = target: MAP3K9 (human) (UniProt P80192)
[17] = target: MAPK9 (human) (UniProt P45984)
[18] = target: MAPKAPK2 (human) (UniProt P49137)
[19] = target: MARK3 (human) (UniProt P27448)
[20] = target: MARK4 (human) (UniProt Q96L34)
[21] = target: MKNK2 (human) (UniProt Q9HBH9)
MKNK2 (human), sequence (Q9HBH9 whole entry, looked up): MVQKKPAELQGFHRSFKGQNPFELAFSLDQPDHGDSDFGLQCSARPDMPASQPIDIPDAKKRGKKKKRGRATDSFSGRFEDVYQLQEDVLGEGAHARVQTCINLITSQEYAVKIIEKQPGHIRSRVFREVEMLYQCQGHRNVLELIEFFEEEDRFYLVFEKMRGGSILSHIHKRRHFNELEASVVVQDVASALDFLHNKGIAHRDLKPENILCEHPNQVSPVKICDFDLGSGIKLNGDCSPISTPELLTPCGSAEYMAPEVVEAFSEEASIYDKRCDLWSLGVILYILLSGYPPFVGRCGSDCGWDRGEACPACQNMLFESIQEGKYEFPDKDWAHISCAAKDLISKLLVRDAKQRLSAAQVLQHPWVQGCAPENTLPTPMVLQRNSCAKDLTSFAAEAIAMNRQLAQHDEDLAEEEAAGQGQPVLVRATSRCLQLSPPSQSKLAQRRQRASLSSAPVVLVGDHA

[22] = target: MYLK (human) (UniProt Q15746); conditions: compound 1.0 µM
[23] = target: NEK6 (human) (UniProt Q9HC98)
[24] = system: PAK2 (human), Q13177 [T402E]
[25] = target: PAK6 (human) (UniProt Q9NQU5)
[26] = target: PIM1 (human) (UniProt P11309)
[27] = target: PIM2 (human) (UniProt Q9P1W9)
[28] = target: PIM3 (human) (UniProt Q86V86)
[29] = target: PKN2 (human) (UniProt Q16513)
[30] = target: RPS6KA5 KD1 KD2 (human) (UniProt O75582)
[31] = system: RPS6KB1 (human), P23443 [T412E]
[32] = target: SRPK1 (human) (UniProt Q96SB4)
[33] = target: STK3 (human) (UniProt Q13188)
[34] = target: TBK1 (human) (UniProt Q9UHD2); conditions: compound 10.0 µM
[35] = target: TTK (human) (UniProt P33981)
[36] = target: YES1 (human) (UniProt P07947)
YES1 (human), sequence (P07947 whole entry, looked up): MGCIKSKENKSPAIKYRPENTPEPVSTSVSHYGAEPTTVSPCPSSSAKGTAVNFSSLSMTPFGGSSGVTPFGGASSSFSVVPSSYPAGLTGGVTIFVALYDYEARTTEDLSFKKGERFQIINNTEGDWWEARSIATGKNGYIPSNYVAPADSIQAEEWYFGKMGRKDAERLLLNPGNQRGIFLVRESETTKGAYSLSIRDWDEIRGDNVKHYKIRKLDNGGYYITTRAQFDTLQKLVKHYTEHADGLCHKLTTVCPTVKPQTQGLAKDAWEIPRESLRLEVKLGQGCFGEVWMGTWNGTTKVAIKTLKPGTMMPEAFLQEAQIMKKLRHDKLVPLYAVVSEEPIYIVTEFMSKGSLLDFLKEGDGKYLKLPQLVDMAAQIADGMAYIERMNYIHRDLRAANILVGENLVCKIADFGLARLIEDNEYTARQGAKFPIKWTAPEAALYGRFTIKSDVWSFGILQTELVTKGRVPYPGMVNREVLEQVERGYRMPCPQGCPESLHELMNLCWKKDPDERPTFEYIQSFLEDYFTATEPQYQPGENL

CHEK1 (human), sequence (O14757 whole entry, looked up): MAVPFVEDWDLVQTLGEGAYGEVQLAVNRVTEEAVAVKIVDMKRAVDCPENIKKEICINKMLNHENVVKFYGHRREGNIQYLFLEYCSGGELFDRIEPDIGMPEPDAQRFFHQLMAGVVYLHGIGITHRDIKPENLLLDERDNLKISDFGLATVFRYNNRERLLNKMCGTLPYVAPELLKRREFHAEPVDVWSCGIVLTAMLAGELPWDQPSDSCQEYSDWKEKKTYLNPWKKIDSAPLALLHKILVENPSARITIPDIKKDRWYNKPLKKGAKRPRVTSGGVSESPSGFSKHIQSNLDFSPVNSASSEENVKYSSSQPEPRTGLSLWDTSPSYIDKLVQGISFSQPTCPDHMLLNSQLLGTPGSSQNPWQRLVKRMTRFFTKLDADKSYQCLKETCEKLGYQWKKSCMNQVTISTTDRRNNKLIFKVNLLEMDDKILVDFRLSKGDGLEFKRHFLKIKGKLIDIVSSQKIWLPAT
DAPK1 (human), sequence (P53355 whole entry, looked up): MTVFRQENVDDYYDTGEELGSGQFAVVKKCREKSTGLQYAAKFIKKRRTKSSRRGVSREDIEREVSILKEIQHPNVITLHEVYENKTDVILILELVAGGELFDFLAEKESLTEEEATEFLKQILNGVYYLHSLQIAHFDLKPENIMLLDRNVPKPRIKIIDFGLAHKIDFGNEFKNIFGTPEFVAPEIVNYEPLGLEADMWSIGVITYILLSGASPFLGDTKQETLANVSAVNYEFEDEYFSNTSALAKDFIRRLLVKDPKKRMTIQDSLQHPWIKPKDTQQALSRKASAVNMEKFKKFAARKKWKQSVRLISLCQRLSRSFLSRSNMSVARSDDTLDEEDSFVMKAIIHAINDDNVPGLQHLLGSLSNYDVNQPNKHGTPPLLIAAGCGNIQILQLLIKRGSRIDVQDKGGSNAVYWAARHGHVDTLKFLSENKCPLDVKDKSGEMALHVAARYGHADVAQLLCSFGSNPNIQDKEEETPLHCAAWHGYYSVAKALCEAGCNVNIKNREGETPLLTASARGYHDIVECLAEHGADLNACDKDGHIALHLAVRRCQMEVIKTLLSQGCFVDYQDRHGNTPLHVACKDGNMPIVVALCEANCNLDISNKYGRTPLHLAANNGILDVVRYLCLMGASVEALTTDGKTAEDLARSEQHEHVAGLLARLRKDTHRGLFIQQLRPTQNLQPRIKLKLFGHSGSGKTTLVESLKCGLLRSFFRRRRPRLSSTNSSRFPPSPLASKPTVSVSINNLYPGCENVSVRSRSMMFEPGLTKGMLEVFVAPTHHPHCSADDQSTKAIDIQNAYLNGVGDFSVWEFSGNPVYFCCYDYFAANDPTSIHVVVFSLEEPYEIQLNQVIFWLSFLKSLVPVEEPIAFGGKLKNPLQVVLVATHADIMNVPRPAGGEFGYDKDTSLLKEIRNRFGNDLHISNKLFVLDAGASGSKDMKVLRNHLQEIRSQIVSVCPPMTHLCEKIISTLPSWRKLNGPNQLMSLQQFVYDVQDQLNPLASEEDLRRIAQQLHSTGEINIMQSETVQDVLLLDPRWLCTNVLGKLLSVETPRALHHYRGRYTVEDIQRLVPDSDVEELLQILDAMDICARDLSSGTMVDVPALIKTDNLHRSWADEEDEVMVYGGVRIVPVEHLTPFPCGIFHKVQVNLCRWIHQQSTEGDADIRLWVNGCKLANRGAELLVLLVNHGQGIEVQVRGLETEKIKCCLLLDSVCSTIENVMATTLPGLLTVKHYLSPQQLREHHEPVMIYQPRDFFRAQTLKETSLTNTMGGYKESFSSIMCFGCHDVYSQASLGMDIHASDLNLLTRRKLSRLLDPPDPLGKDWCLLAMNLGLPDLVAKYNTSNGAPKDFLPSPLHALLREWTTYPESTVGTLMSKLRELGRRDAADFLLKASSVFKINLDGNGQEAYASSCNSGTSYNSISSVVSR
CSNK2A1 (human), sequence (P68400 whole entry, looked up): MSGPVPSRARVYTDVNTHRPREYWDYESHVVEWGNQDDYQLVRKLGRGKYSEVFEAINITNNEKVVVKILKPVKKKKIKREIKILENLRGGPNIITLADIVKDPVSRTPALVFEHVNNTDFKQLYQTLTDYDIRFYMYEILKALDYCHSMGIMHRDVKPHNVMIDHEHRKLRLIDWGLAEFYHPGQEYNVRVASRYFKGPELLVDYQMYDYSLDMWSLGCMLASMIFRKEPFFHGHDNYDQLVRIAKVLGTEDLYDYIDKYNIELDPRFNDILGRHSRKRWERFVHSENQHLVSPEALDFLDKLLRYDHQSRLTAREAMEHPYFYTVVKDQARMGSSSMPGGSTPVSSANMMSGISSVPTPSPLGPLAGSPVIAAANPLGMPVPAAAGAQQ
BTK (human), sequence (Q06187 whole entry, looked up): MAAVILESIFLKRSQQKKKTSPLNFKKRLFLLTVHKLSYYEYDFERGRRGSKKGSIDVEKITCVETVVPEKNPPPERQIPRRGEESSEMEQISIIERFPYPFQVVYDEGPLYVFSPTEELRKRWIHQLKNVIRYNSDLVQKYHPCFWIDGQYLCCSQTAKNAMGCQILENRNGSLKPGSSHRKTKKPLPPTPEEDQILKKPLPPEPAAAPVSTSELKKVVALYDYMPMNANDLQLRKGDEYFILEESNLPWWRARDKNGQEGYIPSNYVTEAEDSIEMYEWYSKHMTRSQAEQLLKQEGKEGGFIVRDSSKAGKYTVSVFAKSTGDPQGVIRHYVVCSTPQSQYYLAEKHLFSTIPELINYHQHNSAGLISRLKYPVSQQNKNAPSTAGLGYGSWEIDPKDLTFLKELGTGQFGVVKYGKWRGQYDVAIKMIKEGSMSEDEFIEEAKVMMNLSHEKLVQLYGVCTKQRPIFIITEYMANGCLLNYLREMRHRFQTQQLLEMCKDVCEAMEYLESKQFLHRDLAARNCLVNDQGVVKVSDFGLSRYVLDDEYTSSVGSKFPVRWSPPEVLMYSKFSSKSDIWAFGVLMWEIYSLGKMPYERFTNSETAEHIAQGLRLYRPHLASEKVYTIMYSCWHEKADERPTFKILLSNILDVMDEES

NCC(=O)Nc1ccc(-n2nc(C(F)(F)F)cc2-c2ccc3c(ccc4ccccc43)c2)cc1
residual activity ([1]; compound 1.0 µM): 98%
residual activity ([1]; compound 10.0 µM): 96%
residual activity ([2]; compound 1.0 µM): 95%
residual activity ([2]; compound 10.0 µM): 95%
residual activity ([3]; compound 1.0 µM): 72%
residual activity ([3]; compound 10.0 µM): 44%
residual activity ([4]; compound 1.0 µM): 111%
residual activity ([4]; compound 10.0 µM): 79%
residual activity ([5]; compound 1.0 µM): 95%
residual activity ([5]; compound 10.0 µM): 43%
residual activity [6]: 75%
residual activity ([7]; compound 1.0 µM): 80%
residual activity ([7]; compound 10.0 µM): 91%
residual activity ([8]; compound 1.0 µM): 72%
residual activity ([8]; compound 10.0 µM): 67%
residual activity [9]: 116%
residual activity ([10]; compound 1.0 µM): 107%
residual activity ([10]; compound 10.0 µM): 92%
residual activity ([11]; compound 1.0 µM): 87%
residual activity ([11]; compound 10.0 µM): 88%
residual activity ([12]; compound 1.0 µM): 91%
residual activity ([12]; compound 10.0 µM): 75%
residual activity ([13]; compound 1.0 µM): 108%
residual activity ([13]; compound 10.0 µM): 107%
residual activity ([14]; compound 1.0 µM): 123%
residual activity ([14]; compound 10.0 µM): 113%
residual activity ([15]; compound 1.0 µM): 86%
residual activity ([15]; compound 10.0 µM): 83%
residual activity ([16]; compound 1.0 µM): 99%
residual activity ([16]; compound 10.0 µM): 80%
residual activity ([17]; compound 1.0 µM): 102%
residual activity ([17]; compound 10.0 µM): 96%
residual activity ([18]; compound 1.0 µM): 91%
residual activity ([18]; compound 10.0 µM): 95%
residual activity ([19]; compound 1.0 µM): 96%
residual activity ([19]; compound 10.0 µM): 101%
residual activity ([20]; compound 1.0 µM): 88%
residual activity ([20]; compound 10.0 µM): 102%
residual activity ([21]; compound 1.0 µM): 91%
residual activity ([21]; compound 10.0 µM): 109%
residual activity [22]: 109%
residual activity ([23]; compound 1.0 µM): 115%
residual activity ([23]; compound 10.0 µM): 63%
residual activity ([24]; compound 1.0 µM): 107%
residual activity ([24]; compound 10.0 µM): 75%
residual activity ([25]; compound 1.0 µM): 88%
residual activity ([25]; compound 10.0 µM): 28%
residual activity ([26]; compound 1.0 µM): 92%
residual activity ([26]; compound 10.0 µM): 94%
residual activity ([27]; compound 1.0 µM): 93%
residual activity ([27]; compound 10.0 µM): 98%
residual activity ([28]; compound 1.0 µM): 99%
residual activity ([28]; compound 10.0 µM): 64%
residual activity ([29]; compound 1.0 µM): 85%
residual activity ([29]; compound 10.0 µM): 63%
residual activity ([30]; compound 1.0 µM): 110%
residual activity ([30]; compound 10.0 µM): 46%
residual activity ([31]; compound 1.0 µM): 86%
residual activity ([31]; compound 10.0 µM): 21%
residual activity ([32]; compound 1.0 µM): 94%
residual activity ([32]; compound 10.0 µM): 80%
residual activity ([33]; compound 1.0 µM): 106%
residual activity ([33]; compound 10.0 µM): 81%
residual activity [34]: 83%
residual activity ([35]; compound 1.0 µM): 90%
residual activity ([35]; compound 10.0 µM): 86%
residual activity ([36]; compound 1.0 µM): 85%
residual activity ([36]; compound 10.0 µM): 80%

Reference: the kinase profiling compilation of Christmann-Franck et al. (2016)
